In ChEMBL document CHEMBL1124419, “Potential tumor- or organ-imaging agents. 29. Radioiodinated esters and amides of 20-hydroxy- and 20-aminopregn-5-en-3 beta-ols” (J Med Chem, 1989):

Test system: Rattus norvegicus
Assay: Concentration accumulated in thyroid at 0.5 hr after intravenous administration in rat
Format: ADME, organism-based, Thyroid gland
Conditions: in vivo

Dose/g	SMILES
2.93%	C[C@@H](OC(=O)c1ccccc1I)C1CCC2C3CC=C4CC(O)CCC4(C)C3CCC21C (stereo not given in full)
1.4%	C[C@@H](NC(=O)c1ccccc1I)C1CCC2C3CC=C4CC(O)CCC4(C)C3CCC21C (stereo not given in full)
2.2%	C[C@H](NC(=O)c1ccccc1I)C1CCC2C3CC=C4CC(O)CCC4(C)C3CCC21C (stereo not given in full)
4.96%	C[C@H](OC(=O)c1ccccc1I)C1CCC2C3CC=C4CC(O)CCC4(C)C3CCC21C (stereo not given in full)

SMILES	Dose/g
CC(C)CCCC(C)C1CCC2C3CC(CI)C4=C(CCC(O)C4)C3CCC12C (stereo not given)	1.37%

Test system: Rattus norvegicus
Assay: Concentration accumulated in thyroid at 24 hr r after intravenous administration in rat
Format: ADME, organism-based, Thyroid gland
Conditions: in vivo

Dose/g	SMILES
52.36%	C[C@@H](OC(=O)c1ccccc1I)C1CCC2C3CC=C4CC(O)CCC4(C)C3CCC21C (stereo not given in full)
24.65%	C[C@@H](NC(=O)c1ccccc1I)C1CCC2C3CC=C4CC(O)CCC4(C)C3CCC21C (stereo not given in full)
51.14%	C[C@H](NC(=O)c1ccccc1I)C1CCC2C3CC=C4CC(O)CCC4(C)C3CCC21C (stereo not given in full)
511.17%	C[C@H](OC(=O)c1ccccc1I)C1CCC2C3CC=C4CC(O)CCC4(C)C3CCC21C (stereo not given in full)

SMILES	Dose/g
CC(C)CCCC(C)C1CCC2C3CC(CI)C4=C(CCC(O)C4)C3CCC12C (stereo not given)	111.3%

Test system: Rattus norvegicus
Assay: Concentration accumulated in adrenal cortex at 24 hr r after intravenous administration in rat
Format: ADME, organism-based
Conditions: in vivo

Dose/g	SMILES
1.23%	C[C@@H](OC(=O)c1ccccc1I)C1CCC2C3CC=C4CC(O)CCC4(C)C3CCC21C (stereo not given in full)
0.55%	C[C@@H](NC(=O)c1ccccc1I)C1CCC2C3CC=C4CC(O)CCC4(C)C3CCC21C (stereo not given in full)
0.1%	C[C@H](NC(=O)c1ccccc1I)C1CCC2C3CC=C4CC(O)CCC4(C)C3CCC21C (stereo not given in full)
0.31%	C[C@H](OC(=O)c1ccccc1I)C1CCC2C3CC=C4CC(O)CCC4(C)C3CCC21C (stereo not given in full)

SMILES	Dose/g
CC(C)CCCC(C)C1CCC2C3CC(CI)C4=C(CCC(O)C4)C3CCC12C (stereo not given)	116.21%

Test system: Rattus norvegicus
Assay: Concentration accumulated in blood at 0.5 hr after intravenous administration in rat
Format: ADME, organism-based
Conditions: in vivo

Dose/g	SMILES
0.25%	C[C@@H](OC(=O)c1ccccc1I)C1CCC2C3CC=C4CC(O)CCC4(C)C3CCC21C (stereo not given in full)
0.08%	C[C@@H](NC(=O)c1ccccc1I)C1CCC2C3CC=C4CC(O)CCC4(C)C3CCC21C (stereo not given in full)
0.1%	C[C@H](NC(=O)c1ccccc1I)C1CCC2C3CC=C4CC(O)CCC4(C)C3CCC21C (stereo not given in full)
0.59%	C[C@H](OC(=O)c1ccccc1I)C1CCC2C3CC=C4CC(O)CCC4(C)C3CCC21C (stereo not given in full)

SMILES	Dose/g
CC(C)CCCC(C)C1CCC2C3CC(CI)C4=C(CCC(O)C4)C3CCC12C (stereo not given)	2.35%

Test system: Rattus norvegicus
Assay: Concentration accumulated in blood at 24 hr r after intravenous administration in rat
Format: ADME, organism-based
Conditions: in vivo

Dose/g	SMILES
0.02%	C[C@@H](OC(=O)c1ccccc1I)C1CCC2C3CC=C4CC(O)CCC4(C)C3CCC21C (stereo not given in full)
< 0.01%	C[C@@H](NC(=O)c1ccccc1I)C1CCC2C3CC=C4CC(O)CCC4(C)C3CCC21C (stereo not given in full)
< 0.01%	C[C@H](NC(=O)c1ccccc1I)C1CCC2C3CC=C4CC(O)CCC4(C)C3CCC21C (stereo not given in full)
0.05%	C[C@H](OC(=O)c1ccccc1I)C1CCC2C3CC=C4CC(O)CCC4(C)C3CCC21C (stereo not given in full)

SMILES	Dose/g
CC(C)CCCC(C)C1CCC2C3CC(CI)C4=C(CCC(O)C4)C3CCC12C (stereo not given)	0.87%

Test system: Rattus norvegicus
Assay: Concentration accumulated in kidney at 0.5 hr after intravenous administration in rat
Format: ADME, organism-based
Conditions: in vivo

Dose/g	SMILES
1.59%	C[C@@H](OC(=O)c1ccccc1I)C1CCC2C3CC=C4CC(O)CCC4(C)C3CCC21C (stereo not given in full)
0.47%	C[C@@H](NC(=O)c1ccccc1I)C1CCC2C3CC=C4CC(O)CCC4(C)C3CCC21C (stereo not given in full)
0.41%	C[C@H](NC(=O)c1ccccc1I)C1CCC2C3CC=C4CC(O)CCC4(C)C3CCC21C (stereo not given in full)
1.29%	C[C@H](OC(=O)c1ccccc1I)C1CCC2C3CC=C4CC(O)CCC4(C)C3CCC21C (stereo not given in full)

SMILES	Dose/g
CC(C)CCCC(C)C1CCC2C3CC(CI)C4=C(CCC(O)C4)C3CCC12C (stereo not given)	0.45%

Test system: Rattus norvegicus
Assay: Concentration accumulated in kidney at 24 hr r after intravenous administration in rat
Format: ADME, organism-based
Conditions: in vivo

Dose/g	SMILES
0.05%	C[C@@H](OC(=O)c1ccccc1I)C1CCC2C3CC=C4CC(O)CCC4(C)C3CCC21C (stereo not given in full)
0.02%	C[C@@H](NC(=O)c1ccccc1I)C1CCC2C3CC=C4CC(O)CCC4(C)C3CCC21C (stereo not given in full)
0.01%	C[C@H](NC(=O)c1ccccc1I)C1CCC2C3CC=C4CC(O)CCC4(C)C3CCC21C (stereo not given in full)
0.11%	C[C@H](OC(=O)c1ccccc1I)C1CCC2C3CC=C4CC(O)CCC4(C)C3CCC21C (stereo not given in full)

SMILES	Dose/g
CC(C)CCCC(C)C1CCC2C3CC(CI)C4=C(CCC(O)C4)C3CCC12C (stereo not given)	0.76%

Test system: Rattus norvegicus
Assay: Concentration accumulated in liver at 0.5 hr after intravenous administration in rat
Format: ADME, organism-based
Conditions: in vivo

Dose/g	SMILES
6.04%	C[C@@H](OC(=O)c1ccccc1I)C1CCC2C3CC=C4CC(O)CCC4(C)C3CCC21C (stereo not given in full)
1.28%	C[C@@H](NC(=O)c1ccccc1I)C1CCC2C3CC=C4CC(O)CCC4(C)C3CCC21C (stereo not given in full)
3.85%	C[C@H](NC(=O)c1ccccc1I)C1CCC2C3CC=C4CC(O)CCC4(C)C3CCC21C (stereo not given in full)
3.92%	C[C@H](OC(=O)c1ccccc1I)C1CCC2C3CC=C4CC(O)CCC4(C)C3CCC21C (stereo not given in full)

SMILES	Dose/g
CC(C)CCCC(C)C1CCC2C3CC(CI)C4=C(CCC(O)C4)C3CCC12C (stereo not given)	4.57%

Test system: Rattus norvegicus
Assay: Concentration accumulated in liver at 24 hr r after intravenous administration in rat
Format: ADME, organism-based
Conditions: in vivo

Dose/g	SMILES
0.11%	C[C@@H](OC(=O)c1ccccc1I)C1CCC2C3CC=C4CC(O)CCC4(C)C3CCC21C (stereo not given in full)
0.22%	C[C@@H](NC(=O)c1ccccc1I)C1CCC2C3CC=C4CC(O)CCC4(C)C3CCC21C (stereo not given in full)
0.06%	C[C@H](NC(=O)c1ccccc1I)C1CCC2C3CC=C4CC(O)CCC4(C)C3CCC21C (stereo not given in full)
0.2%	C[C@H](OC(=O)c1ccccc1I)C1CCC2C3CC=C4CC(O)CCC4(C)C3CCC21C (stereo not given in full)

SMILES	Dose/g
CC(C)CCCC(C)C1CCC2C3CC(CI)C4=C(CCC(O)C4)C3CCC12C (stereo not given)	1.34%

Test system: Rattus norvegicus
Assay: Concentration accumulated in ovary at 0.5 hr after intravenous administration in rat
Format: ADME, organism-based, Female gonad
Conditions: in vivo

Dose/g	SMILES
1.67%	C[C@@H](OC(=O)c1ccccc1I)C1CCC2C3CC=C4CC(O)CCC4(C)C3CCC21C (stereo not given in full)
0.53%	C[C@@H](NC(=O)c1ccccc1I)C1CCC2C3CC=C4CC(O)CCC4(C)C3CCC21C (stereo not given in full)
0.58%	C[C@H](NC(=O)c1ccccc1I)C1CCC2C3CC=C4CC(O)CCC4(C)C3CCC21C (stereo not given in full)
1.49%	C[C@H](OC(=O)c1ccccc1I)C1CCC2C3CC=C4CC(O)CCC4(C)C3CCC21C (stereo not given in full)

SMILES	Dose/g
CC(C)CCCC(C)C1CCC2C3CC(CI)C4=C(CCC(O)C4)C3CCC12C (stereo not given)	4.1%

Test system: Rattus norvegicus
Assay: Concentration accumulated in ovary at 24 hr r after intravenous administration in rat
Format: ADME, organism-based, Female gonad
Conditions: in vivo

Dose/g	SMILES
0.26%	C[C@@H](OC(=O)c1ccccc1I)C1CCC2C3CC=C4CC(O)CCC4(C)C3CCC21C (stereo not given in full)
0.07%	C[C@@H](NC(=O)c1ccccc1I)C1CCC2C3CC=C4CC(O)CCC4(C)C3CCC21C (stereo not given in full)
0.09%	C[C@H](NC(=O)c1ccccc1I)C1CCC2C3CC=C4CC(O)CCC4(C)C3CCC21C (stereo not given in full)
0.26%	C[C@H](OC(=O)c1ccccc1I)C1CCC2C3CC=C4CC(O)CCC4(C)C3CCC21C (stereo not given in full)

SMILES	Dose/g
CC(C)CCCC(C)C1CCC2C3CC(CI)C4=C(CCC(O)C4)C3CCC12C (stereo not given)	33.1%

Test system: Rattus norvegicus
Assay: Concentration accumulated in adrenal cortex at 0.5 hr after intravenous administration in rat
Format: ADME, organism-based
Conditions: in vivo

Dose/g	SMILES
6.83%	C[C@@H](OC(=O)c1ccccc1I)C1CCC2C3CC=C4CC(O)CCC4(C)C3CCC21C (stereo not given in full)
1.66%	C[C@@H](NC(=O)c1ccccc1I)C1CCC2C3CC=C4CC(O)CCC4(C)C3CCC21C (stereo not given in full)
2.49%	C[C@H](NC(=O)c1ccccc1I)C1CCC2C3CC=C4CC(O)CCC4(C)C3CCC21C (stereo not given in full)
10.04%	C[C@H](OC(=O)c1ccccc1I)C1CCC2C3CC=C4CC(O)CCC4(C)C3CCC21C (stereo not given in full)

SMILES	Dose/g
CC(C)CCCC(C)C1CCC2C3CC(CI)C4=C(CCC(O)C4)C3CCC12C (stereo not given)	17.89%
